Source: ChEMBL document CHEMBL5375988, “AcGlcAs: A Novel P53-Targeting Arsenical with Potent Cellular Uptake and Cancer Cell Selectivity” (J Med Chem, 2023)
Activity calls are given as the source filed them. The calls are words filed in the database; no cut-off is given here. Peptide text beside a SMILES is read from it. * marks the point of attachment. Cbz = O=C(OCc1ccccc1)*; CH2F = FC*

What was measured:
NB-4 [1] = assay: Antiproliferative activity against human NB4 cells expressing PML/RARalpha assessed as cell growth inhibition measured after 48 hrs by CCK-8 assay; format: functional, cell-based
[2] = molecular target: Replicase polyprotein 1ab (Severe acute respiratory syndrome coronavirus 2) (UniProt P0DTD1); assay: Binding affinity to SARS-CoV-2 MPro with exposed Cys145 assessed as increase in melting temperature at 1:15 ratio in HEPES at pH 7.5 by DSF analysis
[3] = Plasma stability in mouse assessed as half life at […] measured upto 120 mins by LC-MS analysis; format: ADME, cell-free
[4] = Plasma stability in monkey assessed as half life at […] measured upto 120 mins by LC-MS analysis; format: ADME, cell-free, Macaca mulatta; conditions: rhesus monkey
[5] = Plasma stability in human assessed as half life at […] measured upto 120 mins by LC-MS analysis; format: ADME, cell-free
[6] = molecular target: T1, PML-RARalpha (Homo sapiens) (UniProt P10276+P29590); assay: Induction of Flag-tagged PML/RARalpha (unknown origin) degradation overexpressed in HEK293T cells at 0.3 to 1.5 uM incubated for 16 hrs by Western blot analysis; format: cell-based; conditions: dose 0.3-1.5 µM
[7] = Plasma stability in dog assessed as half life at […] measured upto 120 mins by LC-MS analysis; format: ADME, cell-free, Canis lupus familiaris
[8] = system: Cellular tumor antigen p53 (Homo sapiens), P04637 [V272M]; assay: Restoration of p53-V272M mutant transcriptional activity on CDKN1A promoter in human NCI-H1299 cells at 22 uM measured after 24 hrs by firefly/renilla based luciferase reporter assay; format: cell-based; conditions: filed as activator
[9] = molecular target: T1, PML-RARalpha (Homo sapiens); assay: Induction of Flag-tagged PML/RARalpha (unknown origin) degradation overexpressed in HEK293T cells at 7.2 to 36 uM incubated for 16 hrs by Western blot analysis; format: cell-based; conditions: dose 7.2-36 µM
[10] = system: Cellular tumor antigen p53 (Homo sapiens), P04637 [V272M]; assay: Restoration of p53-V272M mutant transcriptional activity on PUMA promoter in human NCI-H1299 cells at 22 uM measured after 24 hrs by firefly/renilla based luciferase reporter assay; format: cell-based; conditions: filed as activator
[11] = system: Cellular tumor antigen p53 (Homo sapiens), P04637 [V272M]; assay: Thermostabilization of recombinant p53 V272M mutant (unknown origin) […] assessed as increase in melting temperature at 1:15 ratio in HEPES at pH 7.5 by DSF analysis
[12] = molecular target: T1, PML-RARalpha (Homo sapiens); assay: Induction of Flag-tagged PML/RARalpha (unknown origin) degradation overexpressed in HEK293T cells at 4.2 to 21 uM incubated for 16 hrs by Western blot analysis; format: cell-based; conditions: dose 4.2-21 µM
[13] = molecular target: T1, PML-RARalpha (Homo sapiens); assay: Induction of Flag-tagged PML/RARalpha (unknown origin) degradation overexpressed in HEK293T cells at 13 to 65 uM incubated for 16 hrs by Western blot analysis; format: cell-based; conditions: dose 13-65 µM
NB-4 [14] = assay: Induction of apoptosis in human NB4 cells assessed as early apoptotic cells at 9 uM preincubated for 1 hrs followed by replacement with fresh culture medium and measured after 24 hrs by Annexin V-FITC/7AAD staining based flow cytometry assay (reference value: 1.93%); format: functional
NB-4 [15] = assay: Induction of apoptosis in human NB4 cells assessed as late apoptotic cells at 9 uM preincubated for 1 hrs followed by replacement with fresh culture medium and measured after 24 hrs by Annexin V-FITC/7AAD staining based flow cytometry assay (reference value: 3.92%); format: functional
NB-4 [16] = assay: Induction of apoptosis in human NB4 cells assessed as viable cells at 27 uM preincubated for 1 hrs followed by replacement with fresh culture medium and measured after 24 hrs by Annexin V-FITC/7AAD staining based flow cytometry assay (reference value: 94%); format: functional; conditions: read-out: Activity
NB-4 [17] = assay: Induction of apoptosis in human NB4 cells assessed as late apoptotic cells at 3 uM preincubated for 1 hrs followed by replacement with fresh culture medium and measured after 24 hrs by Annexin V-FITC/7AAD staining based flow cytometry assay (reference value: 3.92%); format: functional
[18] = molecular target: T1, PML-RARalpha (Homo sapiens); assay: Induction of PML/RARalpha degradation in human NB4 cells assessed as residual protein level at 1 uM incubated for 1 hrs followed by replacement with fresh culture medium and measured after 16 hrs by Western blot analysis (reference value: 1); format: cell-based
[19] = molecular target: T1, PML-RARalpha (Homo sapiens); assay: Induction of PML/RARalpha degradation in human NB4 cells assessed as residual protein level at 9 uM incubated for 1 hrs followed by replacement with fresh culture medium and measured after 16 hrs by Western blot analysis (reference value: 1); format: cell-based
NB-4 [20] = assay: Induction of granulocytic differentiation in human NB4 cells assessed as increase in CD11b expression at 9 uM incubated for 1 hrs followed by replacement with fresh culture medium for 48 hrs by flow cytometry analysis (reference value: 1.44%); format: functional
NB-4 [21] = assay: Induction of apoptosis in human NB4 cells assessed as late apoptotic cells at 27 uM preincubated for 1 hrs followed by replacement with fresh culture medium and measured after 24 hrs by Annexin V-FITC/7AAD staining based flow cytometry assay (reference value: 3.92%); format: functional
U-937 [22] = assay: Cytotoxicity against p53 null human U-937 cells harboring p53 V272M mutant incubated for 48 hrs by CCK-8 assay; format: functional, cell-based; conditions: U-937, 48 h
[23] = molecular target: T1, PML-RARalpha (Homo sapiens); assay: Induction of PML/RARalpha degradation in human NB4 cells assessed as residual protein level at 3 uM incubated for 1 hrs followed by replacement with fresh culture medium and measured after 16 hrs by Western blot analysis (reference value: 1); format: cell-based
[24] = Half life in iv dosed rat; format: ADME, organism-based; conditions: in vivo
U-937 [25] = assay: Cytotoxicity against p53 null human U-937 cells harboring empty vector incubated for 48 hrs by CCK-8 assay; format: functional, cell-based; conditions: U-937, 48 h
NB-4 [26] = assay: Induction of apoptosis in human NB4 cells assessed as necrotic cells at 9 uM preincubated for 1 hrs followed by replacement with fresh culture medium and measured after 24 hrs by Annexin V-FITC/7AAD staining based flow cytometry assay (reference value: 0.10%); format: functional
[27] = molecular target: T1, PML-RARalpha (Homo sapiens); assay: Induction of PML/RARalpha degradation in human NB4 cells assessed as residual protein level at 0.1 uM incubated for 1 hrs followed by replacement with fresh culture medium and measured after 16 hrs by Western blot analysis (reference value: 1); format: cell-based
[28] = molecular target: T1, PML-RARalpha (Homo sapiens); assay: Induction of PML/RARalpha degradation in human NB4 cells assessed as residual protein level at 0.3 uM incubated for 1 hrs followed by replacement with fresh culture medium and measured after 16 hrs by Western blot analysis (reference value: 1); format: cell-based
NB-4 [29] = assay: Induction of apoptosis in human NB4 cells assessed as early apoptotic cells at 3 uM preincubated for 1 hrs followed by replacement with fresh culture medium and measured after 24 hrs by Annexin V-FITC/7AAD staining based flow cytometry assay (reference value: 1.93%); format: functional
NB-4 [30] = assay: Induction of apoptosis in human NB4 cells assessed as viable cells at 3 uM preincubated for 1 hrs followed by replacement with fresh culture medium and measured after 24 hrs by Annexin V-FITC/7AAD staining based flow cytometry assay (reference value: 94%); format: functional; conditions: read-out: Activity
NB-4 [31] = assay: Induction of granulocytic differentiation in human NB4 cells assessed as CD11b positive cells at 3 uM incubated for 1 hrs followed by replacement with fresh culture medium for 48 hrs by flow cytometry analysis relative to control; format: functional
NB-4 [32] = assay: Induction of apoptosis in human NB4 cells assessed as necrotic cells at 3 uM preincubated for 1 hrs followed by replacement with fresh culture medium and measured after 24 hrs by Annexin V-FITC/7AAD staining based flow cytometry assay (reference value: 0.10%); format: functional
NB-4 [33] = assay: Induction of granulocytic differentiation in human NB4 cells assessed as CD11b positive cells at 9 uM incubated for 1 hrs followed by replacement with fresh culture medium for 48 hrs by flow cytometry analysis relative to control; format: functional
[34] = Half life in iv dosed human; format: ADME, organism-based; conditions: in vivo
NB-4 [35] = assay: Induction of apoptosis in human NB4 cells assessed as necrotic cells at 27 uM preincubated for 1 hrs followed by replacement with fresh culture medium and measured after 24 hrs by Annexin V-FITC/7AAD staining based flow cytometry assay (reference value: 0.10%); format: functional
[36] = Half life in po dosed human; format: ADME, organism-based; conditions: in vivo
[37] = Half life in iv dosed mouse; format: ADME, organism-based; conditions: in vivo
[38] = system: Cellular tumor antigen p53 (Homo sapiens), P04637 [V272M]; assay: Rescue of p53-V272M mutant transcriptional activity on PUMA promoter in human NCI-H1299 cells assessed as fold change in transcriptional activity at 10 uM pretreated for 10 mins to1 hr followed by replacement with fresh culture media and measured after 24 hrs by firefly/renilla based luciferase reporter assay; format: cell-based; conditions: filed as activator, time 10-60 min
NB-4 [39] = assay: Induction of granulocytic differentiation in human NB4 cells assessed as increase in CD11b expression at 3 uM incubated for 1 hrs followed by replacement with fresh culture medium for 48 hrs by flow cytometry analysis (reference value: 1.44%); format: functional
NB-4 [40] = assay: Induction of apoptosis in human NB4 cells assessed as viable cells at 9 uM preincubated for 1 hrs followed by replacement with fresh culture medium and measured after 24 hrs by Annexin V-FITC/7AAD staining based flow cytometry assay (reference value: 94%); format: functional; conditions: read-out: Activity
NB-4 [41] = assay: Induction of apoptosis in human NB4 cells assessed as early apoptotic cells at 27 uM preincubated for 1 hrs followed by replacement with fresh culture medium and measured after 24 hrs by Annexin V-FITC/7AAD staining based flow cytometry assay (reference value: 1.93%); format: functional
[42] = system: GTPase KRas (Homo sapiens), P01116 [G12C]; assay: Binding affinity to KRAS-G12C mutant (unknown origin) with exposed Cys12 assessed as increase in melting temperature at 1:15 ratio in HEPES at pH 7.5 by DSF analysis
GTPase KRas (Homo sapiens), P01116 [G12C], sequence (P01116 whole entry G12C): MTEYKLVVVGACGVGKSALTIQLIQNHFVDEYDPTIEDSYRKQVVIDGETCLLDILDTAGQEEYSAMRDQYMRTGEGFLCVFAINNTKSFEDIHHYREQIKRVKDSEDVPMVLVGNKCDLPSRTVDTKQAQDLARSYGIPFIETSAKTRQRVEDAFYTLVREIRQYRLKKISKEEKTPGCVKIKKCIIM

T1 sequence (P10276 whole entry, looked up): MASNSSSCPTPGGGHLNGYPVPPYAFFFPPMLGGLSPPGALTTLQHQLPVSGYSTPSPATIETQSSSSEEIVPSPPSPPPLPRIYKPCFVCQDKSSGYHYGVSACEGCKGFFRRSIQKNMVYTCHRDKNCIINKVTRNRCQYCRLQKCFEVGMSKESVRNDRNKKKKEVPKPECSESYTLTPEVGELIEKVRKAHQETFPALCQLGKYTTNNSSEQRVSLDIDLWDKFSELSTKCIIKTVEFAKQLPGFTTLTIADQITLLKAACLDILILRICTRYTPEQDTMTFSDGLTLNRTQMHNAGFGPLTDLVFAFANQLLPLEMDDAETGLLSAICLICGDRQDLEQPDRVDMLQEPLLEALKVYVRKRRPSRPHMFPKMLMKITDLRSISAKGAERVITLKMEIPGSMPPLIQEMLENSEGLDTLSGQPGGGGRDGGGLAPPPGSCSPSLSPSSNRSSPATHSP
T1 sequence (P29590 whole entry, looked up): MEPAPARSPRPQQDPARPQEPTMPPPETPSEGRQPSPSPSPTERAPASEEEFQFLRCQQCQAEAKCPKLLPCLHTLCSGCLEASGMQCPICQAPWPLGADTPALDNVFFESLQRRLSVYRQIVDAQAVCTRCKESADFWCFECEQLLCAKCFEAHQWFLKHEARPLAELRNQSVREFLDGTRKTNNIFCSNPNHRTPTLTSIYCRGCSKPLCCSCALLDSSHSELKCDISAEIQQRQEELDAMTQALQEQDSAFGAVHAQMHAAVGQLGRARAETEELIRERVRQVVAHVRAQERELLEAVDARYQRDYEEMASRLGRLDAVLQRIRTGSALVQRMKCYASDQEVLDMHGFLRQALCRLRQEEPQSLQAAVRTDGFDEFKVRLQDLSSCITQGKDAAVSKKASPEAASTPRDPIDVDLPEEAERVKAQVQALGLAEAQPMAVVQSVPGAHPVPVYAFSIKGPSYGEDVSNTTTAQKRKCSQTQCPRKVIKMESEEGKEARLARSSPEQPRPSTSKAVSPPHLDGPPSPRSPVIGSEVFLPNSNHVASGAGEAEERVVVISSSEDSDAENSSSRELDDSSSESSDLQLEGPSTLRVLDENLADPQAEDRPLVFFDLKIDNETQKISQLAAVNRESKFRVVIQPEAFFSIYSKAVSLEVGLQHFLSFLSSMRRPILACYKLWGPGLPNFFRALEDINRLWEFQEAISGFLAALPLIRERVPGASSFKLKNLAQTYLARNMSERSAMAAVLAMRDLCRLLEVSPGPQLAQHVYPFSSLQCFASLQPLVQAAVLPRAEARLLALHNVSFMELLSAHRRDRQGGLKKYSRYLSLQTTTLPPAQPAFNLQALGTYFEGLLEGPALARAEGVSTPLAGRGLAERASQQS

O=S(=O)(O)c1cc(O)c2c(O)c(/N=N/c3ccccc3[As](=O)(O)O)c(S(=O)(=O)O)cc2c1
IC50 (NB-4 [1]; Homo sapiens, NB-4, 48 h): > 50000 nM

COC(=O)C[C@H](NC(=O)[C@H](C)NC(=O)[C@@H](NC(=O)OCc1ccccc1)C(C)C)C(=O)CF (Cbz-Val-Ala-Asp(OMe)-CH2F)
Activity [2]: Active

CCN(CC)CCOC(=O)c1ccc(N)cc1 [PROCAINE]
half-life [3]: 9.83 min | half-life [4]: 4.5 min | half-life [5]: 1.4 min

O=[As]O [SODIUM ARSENITE]
Activity [6]: Active | IC50 (NB-4 [1]; Homo sapiens, NB-4, 48 h): 110 nM

Nc1ccc([As](=O)(O)O)cc1 [ARSANILIC ACID]
IC50 (NB-4 [1]; Homo sapiens, NB-4, 48 h): > 50000 nM

CC(=O)Oc1ccc(C(c2ccc(OC(C)=O)cc2)c2ccccn2)cc1 [BISACODYL]
half-life [7]: 2.06 min

S=[As](=S)S[As](=S)=S
Activity [8]: Active | Activity [9]: Active | IC50 (NB-4 [1]; nb-4): 1200 nM | Activity [10]: Active

S=[As][As]=S (stereo not given)
Activity [11]: inactive

S1[As]2S[As]3S[As]1S[As](S2)S3
Activity [11]: inactive | Activity [12]: Active | IC50 (NB-4 [1]; nb-4): 1990 nM

O=[As]12O[As]3(=O)O[As](=O)(O1)O[As](=O)(O2)O3
Activity [13]: Active | IC50 (NB-4 [1]; nb-4): 5560 nM

S1[As]2S[As]3S[As]2S[As]13
Activity [11]: inactive

O=[As][As+](=O)[O-] (stereo not given) [ARSENIC TRIOXIDE]
Activity (NB-4 [14]): 2.83% | Activity (NB-4 [15]): 3.42% | viability at 27 µM (NB-4 [16]): 93.3% | Activity (NB-4 [17]): 3.48% | Activity [18]: 0.57 | Activity [19]: 0.41 | Activity (NB-4 [20]): 1.93% | Activity (NB-4 [21]): 3.59% | IC50 (U-937 [22]): 1070 nM | Activity [23]: 0.49 | half-life [24]: ~222 min | IC50 (U-937 [25]): > 2000 nM | Activity (NB-4 [26]): 0.17% | Activity [27]: 0.81 | Activity [28]: 0.6 | Activity (NB-4 [29]): 2.54% | IC50 (NB-4 [1]; Homo sapiens, NB-4, 48 h): 940 nM | viability at 3 µM (NB-4 [30]): 93.8% | Activity (NB-4 [31]): 1.7% | Activity (NB-4 [32]): 0.23% | Activity (NB-4 [33]): 2% | half-life [34]: 60 min | Activity (NB-4 [35]): 0.21% | half-life [36]: 360 min | half-life [37]: ~258 min | fold change (FC) [38]: 2.2 | Activity (NB-4 [39]): 1.65% | viability at 9 µM (NB-4 [40]): 93.6% | Activity (NB-4 [41]): 2.88%

C=CC(=O)N1CCN(c2ncnc3c(F)c(-c4c(O)cccc4F)c(Cl)cc23)CC1
Activity [42]: Active
